For one assay, the target named is EryBV (Saccharopolyspora erythraea, UniProt O33939). Conditions: BL21(DE3)/pHL71/pHL50, 100 mg/l 6dEB, 10 μM IPTG, 20 °C, 72 h; TDP-L-mycarose made in the cell.
Another assay has as its target T1, DesIV (Streptomyces venezuelae, UniProt Q9ZGH3).
T1 construct: recombinant from E. coli (pET28/pET21-type vectors)
T1 sequence (Q9ZGH3 1-337): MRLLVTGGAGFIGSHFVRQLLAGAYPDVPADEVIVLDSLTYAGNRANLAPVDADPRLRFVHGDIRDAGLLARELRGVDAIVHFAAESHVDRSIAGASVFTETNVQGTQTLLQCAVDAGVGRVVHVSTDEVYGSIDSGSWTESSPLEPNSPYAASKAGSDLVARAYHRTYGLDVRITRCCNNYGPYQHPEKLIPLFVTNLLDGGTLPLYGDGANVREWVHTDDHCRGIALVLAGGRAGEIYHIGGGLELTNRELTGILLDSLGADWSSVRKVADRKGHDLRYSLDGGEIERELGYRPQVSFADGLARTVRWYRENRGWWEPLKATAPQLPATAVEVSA
In words: HPLC, UV […] nm. It counts as biochemical. Conditions: 1 mM TDP-D-glucose, 1 mM NAD+, 8 μM DesIV, 100 mM phosphate pH 8.0, 1 mM DTT, 5% glycerol, 25 °C.

For the next assay, the target named is EryCII/EryCIII (Saccharopolyspora erythraea, UniProt A4F7P3). Particulars: BL21(DE3)/pHL50, 100 mg/l αMEB, 10 μM IPTG, 20 °C, 72 h; TDP-D-desosamine made in the cell.

`CC[C@H]1OC(=O)[C@H](C)[C@@H](O)[C@H](C)[C@@H](O)[C@@H](C)C[C@@H](C)C(=O)[C@H](C)[C@@H](O)[C@H]1C` [6dEB]: on EryBV, the “whole-cell conversion to 6-deoxyerythromycin D (with EryCII/EryCIII), B. subtili” value is reported as “EryBV, which ordinarily transfers the mycarose sugar onto erythronolide B, is also capable of recognizing 6dEB”.

For the compound `Cc1cn([C@H]2C[C@H](O)[C@@H](COP(=O)(O)OP(=O)(O)O[C@H]3O[C@H](CO)[C@@H](O)[C@H](O)[C@H]3O)O2)c(=O)[nH]c1=O` [A, TDP-D-glucose], the “HPLC, UV 264 nm” value on DesIV is reported as “Conversion of TDP-Glucose to TDP-4-Keto-6-Deoxy-Glucose by DesIV”.

With `Cc1cn([C@H]2C[C@H](O)[C@@H](COP(=O)(O)OP(=O)(O)O[C@H]3O[C@H](C)C(=O)[C@H](O)[C@H]3O)O2)c(=O)[nH]c1=O` [B, TDP-4-keto-6-deoxy-D-glucose], on DesIV, the “HPLC, UV 264 nm” value is on record as “Conversion of TDP-Glucose to TDP-4-Keto-6-Deoxy-Glucose by DesIV”.

For `CC[C@H]1OC(=O)[C@H](C)[C@@H](O[C@H]2C[C@@](C)(O)[C@@H](O)[C@H](C)O2)[C@H](C)[C@@H](O)[C@](C)(O)C[C@@H](C)C(=O)[C@H](C)[C@@H](O)[C@H]1C` [L, αMEB], the “% conversion” value on EryCII/EryCIII is given as ~ 25%.

Values taken from paper PMC1790958, “Bioassay-Guided Evolution of Glycosylated Macrolide Antibiotics in Escherichia coli” (PLoS Biology, 2007).
